Results from PMC9481570, “A small molecule antagonist of SMN disrupts the interaction between SMN and RNAP II” (Nature Communications, 2022).

What was measured:
[1] = system: SMN occupancy at ACTB gene; assay: SMN ChIP-qPCR along the ACTB gene; assay type: cell-based, human; conditions: 72 h; for SMN/RNAPII, ACTB position 332 / SMN/RNAPII, ACTB position 1671 / SMN/RNAPII, ACTB position 2911 / SMN/RNAPII, ACTB position 3752 / SMN/RNAPII, ACTB position 4657 / SMN/RNAPII, ACTB position 5590 / SMN/RNAPII, ACTB position -72: HEK293, 20 μM, ChIP-qPCR, DMSO = 1; for occupancy levels of SMN along the ACTB gene: HEK293 cells, 20 µM
Description: (§1) ChIP was performed using the EZ-ChIP™ A - Chromatin Immunoprecipitation Kit (Millipore, 17-371) according to the manufacturer’s instruction. Antibodies were used with a range of 1–2 μg, and IgG (Millipore, polyclonal antibody, 12-370) was used as a background control. After immunoprecipitation, genomic DNA was de-crosslinked in ChIP elution buffer containing 5 M NaCl at 65 °C overnight and purified with the Qiaex II kit (Qiagen, 20021), and eluted in water for PCR amplification. Immunoprecipitated and input DNAs were used as templates for qPCR. The qPCR primer sequences for ACTB gene are the same as described earlier[9] and shown in the Supplementary Table 2. For analysis of SMN chemical antagonists, HEK293 cells were treated with DMSO, compound 1 or compound 2 (a final concentration of 20 μM) for 72 h, before processing for ChIP.

[2] = system: R-loops at ACTB gene locus; assay: R-loop DNA immunoprecipitation with GFP-HB along ACTB locus; assay type: cell-based, human; conditions: for GFP-HB DNA immunoprecipitation qPCR, ACTB position 332 / GFP-HB DNA immunoprecipitation qPCR, ACTB position 1671 / GFP-HB DNA immunoprecipitation qPCR, ACTB position 3560 / GFP-HB DNA immunoprecipitation qPCR, ACTB position 3752 / GFP-HB DNA immunoprecipitation qPCR, ACTB position 4657 / GFP-HB DNA immunoprecipitation qPCR, ACTB position 5590 / GFP-HB DNA immunoprecipitation qPCR, ACTB position -72: HEK293 cells transfected with GFP-HB; for R-loop signals at the 3′-end of the ACTB gene: HEK293 cells, GFP-HB DNA immunoprecipitation
Excerpt: Fig. 4 Effects of SMN antagonists on the interaction between SMN and RNAP II, RNAP II pause, and R-loop accumulation. a SMN antagonists disrupt binding of SMN to RNAP II. Data shown are representative of three independent experiments. b Illustration of ACTB gene and the qPCR amplification positions. c SMN antagonists reduce SMN association at ACTB gene locus. Quantification of SMN qPCR data from ChIP experiments using SMN antibody at the indicated ACTB amplification positions. The SMN levels in DMSO controls were set as 100%. d SMN antagonists lead to RNAP II pause. Quantification of RNAP II qPCR data from ChIP experiments using POLR2A antibody at the indicated ACTB amplification positions. e SMN knockout (KO) leads to R-loop accumulation. Representative single-plane images of Z-stacks of the R-loop levels in scramble vs SMN KO cells of three independent experiments. Scale bar: 5 μm. f Global nuclear R-loop accumulation in SMN KO cells. g SMN antagonists cause global nuclear R-loop accumulation. h SMN antagonists lead to R-loop accumulation at ACTB gene locus. Quantified DNA immunoprecipitation using primers along ACTB locus by using GFP antibody, in cell extracts that were transfected with GFP-RNase H1 R-loop-binding domain (GFP-HB) fusion construct for R-loop detection. a–h HEK293 cells; c, d, h data were presented as the mean ± S.E.M. of three independent experiments (*P < 0.05, **P < 0.01, ***P < 0.001 for the two-tailed Student’s t-test); f, g scatter plots representing data from single-cell and R-loop immunofluorescence analysis (number of cells = 377, 332, 295, 262, 265 for scramble, SMN KO, DMSO, Cmpd 1, Cmpd 2 condition, respectively; Mean ± Quartiles; ****P < 0.0001 for the two-tailed Mann–Whitney test; a.u.: arbitrary units). Source data are provided as a Source Data file.
HEK293 cells (ATCC, CRL-1573) were grown in DMEM (SLRI media facility) plus 10% FBS (Sigma, F1051). For analysis of SMN chemical antagonists, HEK293 cells were treated with DMSO or a series of concentrations (0, 2, 6, 10, 20, 30, 40, and 80 μM) of compound 1, compound 2 or negative compound 15 for 72 h. CRISPR-mediated SMN1 gene knockout was performed according to our previous study. Briefly, 2 μg of CRISPR/Cas9 plasmid (pCMV-Cas9-GFP), which expresses scrambled guide RNA, or guide RNA that targets the SMN1 gene exon1 (gRNA target sequence: […]) or exon3 (gRNA target sequence: […]) was transfected into HEK293 cells. Cells were sorted by BD FACSAria flow cytometry at Donnelly Center, University of Toronto 24 h after transfection, and single GFP-positive cells were seeded into a 48-well plate. The expression levels of SMN in each clone were detected by immunofluorescence. The transfection of GFP-RNase H1 R-loop-binding domain (GFP-HB) for R-loop detection into HEK293 cells was performed with the FuGENE Transfection reagent (Roche, E269A).
as §1

Compound | SMN/RNAPII, ACTB position 332 [1] | SMN/RNAPII, ACTB position 1671 [1] | SMN/RNAPII, ACTB position 2911 [1] | SMN/RNAPII, ACTB position 3752 [1] | SMN/RNAPII, ACTB position 4657 [1] | SMN/RNAPII, ACTB position 5590 [1] | SMN/RNAPII, ACTB position -72 [1] | occupancy levels of SMN along the ACTB gene [1] | GFP-HB DNA immunoprecipitation qPCR, ACTB position 332 [2] | GFP-HB DNA immunoprecipitation qPCR, ACTB position 1671 [2] | GFP-HB DNA immunoprecipitation qPCR, ACTB position 3560 [2] | GFP-HB DNA immunoprecipitation qPCR, ACTB position 3752 [2] | GFP-HB DNA immunoprecipitation qPCR, ACTB position 4657 [2] | GFP-HB DNA immunoprecipitation qPCR, ACTB position 5590 [2] | GFP-HB DNA immunoprecipitation qPCR, ACTB position -72 [2] | R-loop signals at the 3′-end of the ACTB gene [2]
Cn1c2c(c(=N)c3c1CCC3)CCC2 [Compound 1, 4-methyl-2,3,4,5,6,7-hexahydrodicyclopenta[b,e]pyridin-8(1H)-imine] | 0.6623 | 0.139 | 0.1085 | 0.1464 | 0.1588 | 0.03323 | 0.2631 | significantly reduced | 0.009604 | 0.01285 | 0.03192 | 0.04162 | 0.02409 | 0.01303 | 0.00357 | significantly increased
CCCn1c2c(c(=N)c3c1CCC3)CCC2 [Compound 2, 4-propyl-2,3,4,5,6,7-hexahydrodicyclopenta[b,e]pyridin-8(1H)-imine] | 0.5015 | 0.45 | 0.3355 | 0.2279 | 0.35 | 0.2022 | 0.3107 | significantly reduced | 0.008454 | 0.01239 | 0.02386 | 0.02558 | 0.01308 | 0.01171 | 0.004979 | significantly increased
